± gives the expanded uncertainty stated by the source.
Key:
[1] = Molar enthalpy of transition or fusion; settings: Crystal; DSC
[2] = Crystal; DTA

Row | Molar enthalpy of transition or fusion [1] [kcal/mol] | Normal melting temperature [2] [°C] | SMILES
1 | 38.9 ± 1 | 67.4 ± 0.5 | CCCCCCCCCCCCCCCC(=O)OCC(COC(=O)CCCCCCCCCCCCCCC)OC(=O)CCCCCCCCCCCCCCC [1,2,3-propanetriyl tri(hexadecanoate)]
2 | – | 74.5 ± 0.5 | CC(C)Cc1ccc(C(C)C(=O)O)cc1 (stereo not given) [ibuprofen]
3 | 10.9 ± 0.287 | 53.1 ± 0.5 | CCCCCCCCCCCCCC(=O)O [tetradecanoic acid]

From the NIST ThermoML archive (doi:10.1021/je900342a)
